Counter-ions that a name gives are not always drawn.
How the values were obtained:
[1] = tested on: saphenous vein of rabbits; experiment: Contraction of the saphenous vein isolated from rabbit; conditions: Oryctolagus cuniculus, rabbit saphenous vein rings; for Emax: % relative to the maximum effect induced by KCl (100 mM), read-out: maximum response (contraction of the saphenous vein); for EC50: cumulative doses 10^-9 to 10^-4 M, 37° C., tension as % of KCl maximum
Description: (§1) The activity of the compounds of the invention has been evaluated in a pharmacological test that measures their potential for contracting the saphenous vein isolated from a dog or rabbit, as described by Humphrey et al. (Br. J. Pharmacol., 94, 1123, 1988).
(§2) The test are carried out on saphenous veins of dogs (10-25 kg) or of rabbits (2-3 kg) which have ben anaesthetised with pentobarbital (30 mg/kg i.v.). The saphenous veins are removed quickly and cut into rings. The rings are mounted between two hooks in vessels maintained at 37° C. containing physiological saline (composition in mM:NaCl 118.3; KCl 4.7; CaCl2 2.5; MgSO4 1.2; KH2 PO4 1.2; NaHCO3 25.0; Ca-EDTA 0.026 and glucose 11.1).
(§3) A mixture of 95% O2 --5% CO2 is bubbled through the physiological saline solution. The lower hook consists of the fixed point whilst the upper hook is connected to an isometric force sensor. The tissues are subjected to a base tension of 1.5 grammes (dog) and of 1 gramme (rabbit). The test pharmacological substances are prepared immediately prior to use; they are solubilised in water or in dimethyl sulphoxide.
(§4) After being mount, the preparations are left to rest for 60 minutes, rinsing operations being carried out every 30 minutes. The organ is then placed in the presence of phenoxybenzamine (5×10^-8 M) for 20 minutes. That agent is eliminated by a number of successive washing operations over the course of 45 minutes. After readjustment of the base tension, contraction is brought about by KCl (100 mM). After washing and return to the base line, contraction is induced by 5-hydroxytryptamine (10^-5 M).
(§5) After washing and return to the base line, a dose/response curve for the pharmacological substances is produced by the addition of cumulative doses (10^-9 to 10^-4 M).
(§6) The test enables the 50% effective concentration (EC50) of the compounds of the invention to be determined.
The EC50 is calculated in the following manner: the tension values are first converted into percentages relative to the maximum effect induced by KCl. The effective concentration 50% (ED50) is determined by non-linear regression according to the model of the law of mass action of Michaelis-Menten.

[2] = tested on: saphenous vein of dogs; experiment: Contraction of the saphenous vein isolated from dog; conditions: Canis lupus familiaris, dog saphenous vein rings
Description: as §1, §2, §3, §4, §5, §6
The EC50 is calculated in the following manner: the tension values are first converted into percentages relative to the maximum effect induced by KCl. […]

SMILES	Emax [1] [%]	EC50 [1] [nM]	Emax at 100 µM ([2]; 100 μM, % relative to the maximum effect induced by KCl (100 mM), read-out: maximum contraction at a concentration of 100 μM) [%]	Emax ([2]; % relative to the maximum effect induced by KCl (100 mM), read-out: maximum response (contraction of the saphenous vein)) [%]	EC50 ([2]; cumulative doses 10^-9 to 10^-4 M, 37° C., tension as % of KCl maximum) [nM]
COc1cncnc1N1CCN(CCCn2ccc3ccc(-n4cnnc4)cc32)CC1 [Example 5, 1-{3-[4-(5-Methoxypyrimidin-4-yl)piperazin-1-yl]propyl}-6-([1,2,4]-triazol-4-yl)indole dihydrochloride]	75	300	6	–	–
CN(C)CCn1ncc2ccc(-n3cnnc3)cc21 [Example 6, 1-(Dimethylaminoethyl)-6-([1,2,4]triazol-4-yl)indazole dihydrochloride]	87	120	–	47	170
